Results reported in US11331369B2, “Endoparasitic depsipeptides” (Zoetis Services LLC, priority 2017, dated 2022).
Read-outs that look alike come from different tables or passages of the source.

Experiments:
[1] = system: 4th stage larvae (L4) of Dirofilaria immitis; assay: Dirofilaria immitis, L4 Stage (DiL4) In Vitro Assay; assay type: cell-based
[2] = system: third stage larvae of Haemonchus contortus; assay: Haemonchus contortus L3 (HcL3) Assay; assay type: cell-based; settings: 96 h, read-out: HcL3 Minimum Effective Dose (MED)
[3] = Canine pharmacokinetic (PK) study, single IV or oral dose; settings: dog
[4] = system: circulating microfilariae (Dirofilaria immitis); assay: Heartworm Positive Dog Studies (effects on circulating microfilariae, clinical observations); settings: for Mean MF/mL, Day 0 Pre-dose / Mean MF/mL, Day 0 Post-dose, 2 hours / Mean MF/mL, Day 1 / Mean MF/mL, Day 7 / Mean MF/mL, Day 14 / Mean MF/mL, Day 21: blood, 3 dogs/treatment; for Mean MF/mL, Day 0 Pre-dose: baseline before oral dose; for Mean MF/mL, Day 0 Post-dose, 2 hours / Mean MF/mL, Day 1 / Mean MF/mL, Day 7 / Mean MF/mL, Day 14 / Mean MF/mL, Day 21: oral dose (emodepside and 1b-14 1 mg/kg, 1b-25 up to 3 mg/kg); for Mean MF/mL, Day 0 Post-dose, 2 hours / % Reduction of circulating microfilariae, Day 0 Post-dose, 2 hours: 2 hours post-dose; for % Reduction of circulating microfilariae, Day 0 Post-dose, 2 hours / % Reduction of circulating microfilariae, Day 1 / % Reduction of circulating microfilariae, Day 7 / % Reduction of circulating microfilariae, Day 14 / % Reduction of circulating microfilariae, Day 21: vs pre-dose (Day 0) counts, oral dose
[5] = system: microfilariae of Dirofilaria immitis; assay: Dirofilaria immitis, Microfilaria (DiMF) In vitro Assay; assay type: cell-based; settings: 72 h, read-out: DiMF Minimum Effective Dose (MED), approximately 72 hours incubation, microfilariae assessed for survival or paralysis
[6] = system: circulating microfilariae (Dirofilaria immitis); settings: dog, in vivo, po, 1 mg/kg

| Structure (SMILES) | Mean MF/mL, Day 0 Pre-dose ([4]; heartworm positive dogs) | Mean MF/mL, Day 0 Post-dose, 2 hours ([4]; heartworm positive dogs) | Mean MF/mL, Day 1 ([4]; heartworm positive dogs) | Mean MF/mL, Day 7 ([4]; heartworm positive dogs) | Mean MF/mL, Day 14 ([4]; heartworm positive dogs) | Mean MF/mL, Day 21 ([4]; heartworm positive dogs) | % Reduction of circulating microfilariae, Day 0 Post-dose, 2 hours [4] | % Reduction of circulating microfilariae, Day 1 [4] | % Reduction of circulating microfilariae, Day 7 [4] | % Reduction of circulating microfilariae, Day 14 [4] | % Reduction of circulating microfilariae, Day 21 [4] | further results |
| --- | --- | --- | --- | --- | --- | --- | --- | --- | --- | --- | --- | --- |
| CC(C)C[C@H]1C(=O)O[C@H](Cc2ccc(Cn3cc(Br)cn3)cc2)C(=O)N(C)[C@@H](CC(C)C)C(=O)O[C@H](C)C(=O)N(C)[C@@H](CC(C)C)C(=O)O[C@H](Cc2ccc(Cn3cc(Br)cn3)cc2)C(=O)N(C)[C@@H](CC(C)C)C(=O)O[C@H](C)C(=O)N1C [Example 1b-25, (3S,6R,9S,12R,15S,18R,21S,24R)-6,18-bis[[4-[(4-bromopyrazol-1-yl)methyl]phenyl]methyl]-3,9,15,21-tetraisobutyl-4,10,12,16,22,24-hexamethyl-1,7,13,19-tetraoxa-4,10,16,22-tetrazacyclotetracosane-2,5,8,11,14,17,20,23-octaone] | 32,000 MF/mL | 34,000 MF/mL | 26,000 MF/mL | 27,000 MF/mL | 40,000 MF/mL | 46,000 MF/mL | −6% | 19% | 16% | −25% | −44% | selectivity ratio (DiMF/DiL4) ([1]; ratio of DiMF MED to DiL4 MED): about 8.3; minimal effective concentration [2]: 10 to 100 µM; Vd ([3]; in vivo, iv, 0.2 mg/kg): 3 L/kg; clearance ([3]; in vivo, iv, 0.2 mg/kg): 2 mL/min/kg; half-life ([3]; in vivo, iv, 0.2 mg/kg): 110 h; Cmax ([3]; in vivo, po, 1 mg/kg): 152 ng/mL; F ([3]; oral 1 mg/kg): 12%; adverse effects / clinical observations ([4]; heartworm positive dogs, dosed up to 3 mg/kg (po)): no adverse effects observed; effects on circulating MF counts ([4]; heartworm positive dogs, dosed up to 3 mg/kg (po), out to day 21 post-dose): no significant effects on circulating MF counts |
| CC(C)C[C@H]1C(=O)O[C@H](Cc2ccc(N3CCOCC3)cc2)C(=O)N(C)[C@@H](CC(C)C)C(=O)O[C@H](C)C(=O)N(C)[C@@H](CC(C)C)C(=O)O[C@H](Cc2ccc(N3CCOCC3)cc2)C(=O)N(C)[C@@H](CC(C)C)C(=O)O[C@H](C)C(=O)N1C [emodepside, reference compound] | 61,000 MF/mL | 8,300 MF/mL | 4,500 MF/mL | 8,800 MF/mL | 13,000 MF/mL | 13,000 MF/mL | 86% | 93% | 86% | 79% | 79% | minimal effective concentration [5]: 0.03 µM; minimal effective concentration ([1]; Dirofilaria immitis, 72 h, read-out: DiL4 Minimum Effective Dose (MED), approximately 72 hours incubation, L4 larvae assessed for survival or paralysis): 0.03 µM; adverse effects / clinical observations [6]: all treated dogs exhibited adverse effects consistent with dead or dying circulating microfilariae; average MF counts at 2 hours post-dose ([4]; heartworm positive dogs, 1 mg/kg (po), 61,000 MF/mL of blood pre-dose): 8,300 MF/mL of blood; decrease of average MF counts at 2 hours post-dose ([4]; heartworm positive dogs, 1 mg/kg (po), versus pre-dose): ~86% |
